The experiment concerns Bovine cardiac myofibrils. The experiment can be described thus: In vitro model of dose-dependent myofibril ATPase modulation (AC1.4, pyruvate kinase/lactate dehydrogenase-coupled ATPase assay at pCa25). Format: biochemical. The following applies: concentration at which ATPase activity was 1.4-fold higher than the bottom of the dose curve, mean of a minimum of two independent tests. In short, it runs like this: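 Compound dilutions were premixed with myofibrils, coupling enzymes, EGTA and CaCl2, then the reaction was started with an equal volume carrying ATP (final 1 mM), NADH and PEP. ATP turnover was followed at 340 nm, and dose responses were fit to a four-parameter equation.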

With `Cc1ccc([C@@H](C)NC(=O)[C@H]2CCCN2C(=O)[C@H]2CCCN(S(=O)(=O)N3CC(C#N)C3)C2)c(F)c1` [Example 98, 1-(((3S)-1-((3-cyano-1-azetidinyl)sulfonyl)-3-piperidinyl)carbonyl)-N-((1R)-1-(2-fluoro-4-methylphenyl)ethyl)-D-prolinamide], the AC1.4 is 0.1474 µM. The same measure for `N#CC1CN(S(=O)(=O)N2CCC[C@H](C(=O)N3CCC[C@@H]3C(=O)NCc3ccc(Cl)cc3Cl)C2)C1` [Example 99, 1-(((3S)-1-((3-cyano-1-azetidinyl)sulfonyl)-3-piperidinyl)carbonyl)-N-(2,4-dichlorobenzyl)-D-prolinamide]: 0.1484 µM; for `N#CC1CN(S(=O)(=O)c2cccc(C(=O)N3CCC[C@@H]3C(=O)NCc3cc(F)cc(F)c3F)c2)C1` [Example 100, 1-(3-((3-cyano-1-azetidinyl)sulfonyl)benzoyl)-N-(2,3,5-trifluorobenzyl)-D-prolinamide]: 0.1502 µM; for `CC(C)(C)Nc1ccc(S(C)(=O)=O)cc1C(=O)N1[C@@H](C(=O)N[C@@H](c2ccc(C(F)(F)F)cc2F)C2CC2)C[C@H]2C[C@H]21` [Example 101, (1R,3R,5R)-N-((R)-cyclopropyl(2-fluoro-4-(trifluoromethyl)phenyl)methyl)-2-(2-((2-methyl-2-propanyl)amino)-5-(methylsulfonyl)benzoyl)-2-azabicyclo[3.1.0]hexane-3-carboxamide]: 0.1559 µM. In turn, `N#CC1CN(S(=O)(=O)c2cccc(C(=O)N3CCC[C@@H]3C(=O)NCc3ccc(C(F)F)cc3)c2)C1` [Example 102, 1-((3-((3-cyano-1-azetidinyl)sulfonyl)phenyl)carbonyl)-N-(4-(difluoromethyl)benzyl)-D-prolinamide] had an AC1.4 of 0.1574 µM. With `N#CC1CN(S(=O)(=O)N2C[C@H]3C[C@@H]2[C@H](C(=O)N2CCC[C@@H]2C(=O)NCc2ccc(C(F)(F)F)cc2F)C3)C1` [Example 103, 1-(((1R,4R,6R)-2-((3-cyano-1-azetidinyl)sulfonyl)-2-azabicyclo[2.2.1]hept-6-yl)carbonyl)-N-(2-fluoro-4-(trifluoromethyl)benzyl)-D-prolinamide], the AC1.4 is 0.1585 µM.

`C[C@@H](NC(=O)[C@H]1CCCN1C(=O)[C@H]1CCCN(S(=O)(=O)N2CC(C#N)C2)C1)c1ccc(C(F)F)cc1F` [Example 104, 1-(((3S)-1-((3-cyano-1-azetidinyl)sulfonyl)-3-piperidinyl)carbonyl)-N-((1R)-1-(4-(difluoromethyl)-2-fluorophenyl)ethyl)-D-prolinamide] yielded an AC1.4 of 0.1611 µM.

As to `N#CC1CN(S(=O)(=O)c2cccc(C(=O)N3CCC[C@@H]3C(=O)N[C@@H](CO)c3ccc(Cl)c(F)c3)c2)C1` [Example 105, N-((1R)-1-(4-chloro-3-fluorophenyl)-2-hydroxyethyl)-1-(3-((3-cyano-1-azetidinyl)sulfonyl)benzoyl)-D-prolinamide], the AC1.4 is 0.1638 µM. `Cc1ccc(CNC(=O)[C@H]2CCCN2C(=O)c2cccc(S(=O)(=O)N3CC(C#N)C3)c2)cc1` [Example 106, 1-((3-((3-cyano-1-azetidinyl)sulfonyl)phenyl)carbonyl)-N-(4-methylbenzyl)-D-prolinamide] yielded an AC1.4 of 0.164 µM. Take `N#CC1CN(S(=O)(=O)N2CCC[C@H](C(=O)N3CCC[C@@H]3C(=O)N[C@H](c3ccc(C(F)(F)F)cc3)C3CC3)C2)C1` [Example 107, 1-(((3S)-1-((3-cyano-1-azetidinyl)sulfonyl)-3-piperidinyl)carbonyl)-N-((S)-cyclopropyl(4-(trifluoromethyl)phenyl)methyl)-D-prolinamide]: the AC1.4 worked out at 0.1642 µM. Take `CCNc1ccc(C)cc1C(=O)N1CCC[C@@H]1C(=O)N[C@@H](c1ccc(C(F)(F)F)cc1F)C1CC1` [Example 108, N-((R)-cyclopropyl(2-fluoro-4-(trifluoromethyl)phenyl)methyl)-1-(2-(ethylamino)-5-methylbenzoyl)-D-prolinamide]: the AC1.4 came out at 0.1689 µM. The same measure for `N#CC1CN(S(=O)(=O)N2CCC[C@H](C(=O)N3CCOC[C@@H]3C(=O)NCc3ccc(C(F)(F)F)cc3)C2)C1` [Example 109, (3R)-4-(((3S)-1-((3-cyano-1-azetidinyl)sulfonyl)-3-piperidinyl)carbonyl)-N-(4-(trifluoromethyl)benzyl)-3-morpholinecarboxamide]: 0.1712 µM; for `CCNc1ccc(C)cc1C(=O)N1C[C@@H](O)C[C@@H]1C(=O)N[C@@H](c1cc(F)c(Cl)cc1F)C1COC1` [Example 110, (4S)-N-((R)-(4-chloro-2,5-difluorophenyl)(3-oxetanyl)methyl)-1-(2-(ethylamino)-5-methylbenzoyl)-4-hydroxy-D-prolinamide]: 0.1732 µM. Consider `O=C(N[C@@H](c1cc(F)c(Cl)cc1F)C1CC1)[C@H]1C[C@H]2C[C@H]2N1C(=O)c1cccc(S(=O)(=O)CCO)c1` [Example 112, (1R,3R,5R)-N-((R)-(4-chloro-2,5-difluorophenyl)(cyclopropyl)methyl)-2-(3-((2-hydroxyethyl)sulfonyl)benzoyl)-2-azabicyclo[3.1.0]hexane-3-carboxamide], for which the AC1.4 is 0.1762 µM.

The compound `CN(C)S(=O)(=O)c1cccc(C(=O)N2CCC[C@@H]2C(=O)N[C@@H](c2ccc(Cl)c(F)c2)C2CC2)c1` [Example 114, N-((R)-(4-chloro-3-fluorophenyl)(cyclopropyl)methyl)-1-(3-(dimethylsulfamoyl)benzoyl)-D-prolinamide] displayed an AC1.4 of 0.1771 µM. As to `O=C(N[C@@H](c1cc(F)c(C(F)(F)F)cc1F)C1CC1)[C@H]1C[C@H]2C[C@H]2N1C(=O)c1cccc(C(F)(F)F)c1` [Example 115, (1R,3R,5R)-N-((R)-cyclopropyl(2,5-difluoro-4-(trifluoromethyl)phenyl)methyl)-2-(3-(trifluoromethyl)benzoyl)-2-azabicyclo[3.1.0]hexane-3-carboxamide], the AC1.4 came out at 0.1774 µM. With `N#CC1CN(S(=O)(=O)N2CCO[C@H](C(=O)N3CCC[C@@H]3C(=O)NCc3ccc(C(F)(F)F)cc3F)C2)C1` [Example 116], the AC1.4 is 0.179 µM. The same measure for `N#CC1CN(S(=O)(=O)N2CCC[C@H](C(=O)N3CCC[C@@H]3C(=O)N[C@@H](c3ccc(S(F)(F)(F)(F)F)cc3)C3CC3)C2)C1` [Example 117, 1-(((3S)-1-((3-cyano-1-azetidinyl)sulfonyl)-3-piperidinyl)carbonyl)-N-((R)-cyclopropyl(4-(pentafluoro-lambda~6~-sulfanyl)phenyl)methyl)-D-prolinamide]: 0.179 µM. The same measure for `CS(=O)(=O)c1ccc(NCCO)c(C(=O)N2[C@@H](C(=O)N[C@@H](c3ccc(C(F)(F)F)cc3F)C3CC3)C[C@H]3C[C@H]32)c1` [Example 118, (1R,3R,5R)-N-((R)-cyclopropyl(2-fluoro-4-(trifluoromethyl)phenyl)methyl)-2-(2-((2-hydroxyethyl)amino)-5-(methylsulfonyl)benzoyl)-2-azabicyclo[3.1.0]hexane-3-carboxamide]: 0.1795 µM; for `Cc1cc(Cl)ccc1CNC(=O)[C@H]1CCCN1C(=O)[C@H]1CCCN(S(=O)(=O)N2CC(C#N)C2)C1` [Example 119, N-(4-chloro-2-methylbenzyl)-1-(((3S)-1-((3-cyano-1-azetidinyl)sulfonyl)-3-piperidinyl)carbonyl)-D-prolinamide]: 0.1819 µM.

As for `C[C@@H](NC(=O)[C@H]1CCCN1C(=O)c1cccc(S(=O)(=O)N2CC(C#N)C2)c1)c1ccc(C(F)F)cc1` [Example 120, 1-((3-((3-cyano-1-azetidinyl)sulfonyl)phenyl)carbonyl)-N-((1R)-1-(4-(difluoromethyl)phenyl)ethyl)-D-prolinamide], the AC1.4 turned out to be 0.1826 µM. Take `C[C@H](C(=O)N[C@H](C)c1ccc(C(F)(F)F)cc1)N(C)C(=O)c1cccc(S(=O)(=O)N2CC(C#N)C2)c1` [Example 121, 3-((3-cyano-1-azetidinyl)sulfonyl)-N-methyl-N-((1R)-1-methyl-2-oxo-2-(((1R)-1-(4-(trifluoromethyl)phenyl)ethyl)amino)ethyl)benzamide]: the AC1.4 came to 0.1828 µM. `N#CC1CN(S(=O)(=O)c2cccc(C(=O)N3C[C@H](F)C[C@@H]3C(=O)NCc3ccc(C(F)(F)F)cc3)c2)C1` [Example 122, (4R)-1-((3-((3-cyano-1-azetidinyl)sulfonyl)phenyl)carbonyl)-4-fluoro-N-(4-(trifluoromethyl)benzyl)-D-prolinamide] returned an AC1.4 of 0.1858 µM. The same measure for `N#CC1CN(S(=O)(=O)n2cc(C(=O)N3CCC[C@@H]3C(=O)NCc3ccc(C(F)(F)F)cc3)cn2)C1` [Example 123, 1-((1-((3-cyano-1-azetidinyl)sulfonyl)-1H-pyrazol-4-yl)carbonyl)-N-(4-(trifluoromethyl)benzyl)-D-prolinamide]: 0.189 µM; for `CC[C@@H](NC(=O)[C@H]1CCCN1C(=O)c1cccc(S(=O)(=O)N2CC(C#N)C2)c1)c1cc(F)cc(F)c1` [Example 124, 1-(3-((3-cyano-1-azetidinyl)sulfonyl)benzoyl)-N-((1R)-1-(3,5-difluorophenyl)propyl)-D-prolinamide]: 0.1998 µM; for `CS(=O)(=O)c1ccc(C(=O)N2CCCC[C@@H]2C(=O)N[C@@H](c2cc(F)c(Cl)cc2F)C2CC2)cn1` [Example 125, (2R)-N-((R)-(4-chloro-2,5-difluorophenyl)(cyclopropyl)methyl)-1-((6-(methylsulfonyl)-3-pyridinyl)carbonyl)-2-piperidinecarboxamide]: 0.2026 µM. `N#CC1CN(S(=O)(=O)c2cccc(C(=O)N3C[C@H](O)C[C@@H]3C(=O)NCc3ccc(C(F)(F)F)cc3)c2)C1` [Example 126, (4R)-1-((3-((3-cyano-1-azetidinyl)sulfonyl)phenyl)carbonyl)-4-hydroxy-N-(4-(trifluoromethyl)benzyl)-D-prolinamide] returned an AC1.4 of 0.2062 µM.

Source of the values: US11780826B2 (Amgen Inc., priority 2017, dated 2023).
